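Five compound concentrations were applied to cells in 96-well plates for 48 hours; endpoints were derived by simple linear interpolation of the resulting dose-response curve. GI50 marks 50% less growth. TGI denotes the concentration required for complete inhibition of growth.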

What all share (test): NCI-60 cell line screen, 48 h
The subject of experiment [1] is 786-0 renal.
In experiment [2] the test system is HCT-15 colon.
The subject of experiment [3] is U251 CNS.
In experiment [4] the test system is ACHN renal.
Experiment [5] concerns NCI-H522 lung.
Experiment [6] deals with HOP-62 NSCLC.
The subject of experiment [7] is UACC-257 melanoma.
In experiment [8] the test system is COLO 205 colon.
Experiment [9] relates to SNB-75 CNS.
The test system of experiment [10] is CCRF-CEM leukemia.

For `COc1ccc(Nc2ncc(Br)c(NCCCNC(=O)C3CCC3)n2)cc1`, the GI50 is 10.1 µM in experiment [1]; 14.7 µM in experiment [2]; 12.4 µM in [3]; 13.5 µM in experiment [4]; 24 µM in [5]; 4.77 µM in [6]. Also, the GI50 in experiment [7] was 68.9 µM; in [8], 10.6 µM; in experiment [9] it was 2980 nM; in experiment [10] it was 4490 nM. For the same molecule, the TGI in experiment [1] was 47.1 µM; in experiment [2] it was 62.5 µM; in [3], > 100 µM; in experiment [4] it was > 100 µM; in experiment [5], > 100 µM; in experiment [6], 44.8 µM. Besides, the TGI in [7] was > 100 µM; in experiment [8], 30.8 µM; in [9], 12.1 µM; in experiment [10], 98.1 µM.

With `Cc1c(S(C)(=O)=O)c(-c2cc(F)cc(N3CCN(c4ccc(NS(=O)(=O)c5ccc(N[C@H](CCN6CCC(C(=O)OCCCP(=O)(O)O)CC6)CSc6ccccc6)c(S(=O)(=O)C(F)(F)F)c5)cc4)CC3)c2)c(-c2ccc(Cl)cc2)n1C(C)C`, the GI50 in experiment [1], in experiment [2], in [3], in experiment [4], in experiment [5] and in experiment [6] was > 100 µM in each case. The GI50 was > 100 µM in [7], > 100 µM in experiment [8], > 100000 nM in experiment [9] and 456 nM in experiment [10]. Moreover, the TGI in experiment [1], in experiment [2], in experiment [3], in experiment [4], in experiment [5] and in experiment [6] was > 100 µM throughout. Moreover, the TGI in [7], in [8], in experiment [9] and in experiment [10] was > 100 µM throughout.

As for `C=C(CCCCCCCCC)CC(=O)SCCNC(=O)CCNC(=O)C(O)C(C)(C)COP(=O)(O)OP(=O)(O)OCC1OC(n2cnc3c(N)ncnc32)C(O)C1OP(=O)(O)O` (stereo not given), the TGI in experiment [1] was > 100 µM; in experiment [2], > 100 µM; in [3], > 100 µM; in experiment [4] it was > 100 µM; in experiment [5], > 100 µM; in experiment [6], > 85.7 µM. Moreover, the TGI was > 100 µM in [7], > 100 µM in experiment [8], 58.8 µM in experiment [9] and > 100 µM in experiment [10].

`CCc1n(Cc2ccc3ccccc3n2)cc[n+]1Cc1ccc2ccccc2n1`: the GI50 in [1] is 31.2 µM; in experiment [2], 65.7 µM; in experiment [3], 0.186 µM; in experiment [4], 28 µM; in experiment [5] it was 0.0837 µM; in experiment [6], 4.66 µM. In addition, the GI50 in [7] was 0.0796 µM; in [8], 0.0596 µM; in experiment [9], 141 nM; in experiment [10], 388 nM. Also, the TGI was > 100 µM in experiment [1]; > 100 µM in experiment [2]; 13.5 µM in experiment [3]; > 100 µM in [4]; 1.49 µM in experiment [5]; 31.5 µM in experiment [6]. Further, the TGI stood at 0.695 µM in [7], 0.705 µM in experiment [8], 2.4 µM in [9] and 15.4 µM in [10].

As for `COC1=CC(=O)C2C(C1=O)[C@@H]1c3ccccc3C[C@H]21` (stereo not given in full), the TGI in experiment [1], in experiment [2], in [3], in [4], in experiment [5] and in experiment [6] was > 100 µM each time. The TGI in experiment [7], in [8], in experiment [9] and in experiment [10] was > 100 µM in each case.

With `CC(=O)Nc1ccc(C(=O)NN2C(=O)C(Cl)C2c2ccc([N+](=O)[O-])cc2)cc1` (stereo not given), the TGI in [1], in [2], in experiment [3], in experiment [4], in [5] and in [6] was > 100 µM in each case. In addition, the TGI in experiment [7], in [8], in experiment [9] and in [10] was > 100 µM throughout.

Take `O=Nc1c(-c2c(O)[nH]c3ccc([N+](=O)[O-])cc23)[nH]c2ccc(O)cc12`: the GI50 in [1] was 0.319 µM; in experiment [2], 0.376 µM; in experiment [3], 0.325 µM; in experiment [4], 0.261 µM; in experiment [5], 0.38 µM; in experiment [6], 0.524 µM. Also, the GI50 in experiment [7] was 0.647 µM; in [8], 5.92 µM; in [9] it was 26.4 nM; in experiment [10], 110 nM. The TGI in [1] is > 100 µM; in experiment [2], > 100 µM; in experiment [3], > 35.1 µM; in experiment [4], > 100 µM; in [5], 2.67 µM; in [6], > 33.6 µM. Further, the TGI in experiment [7] was > 83.9 µM; in experiment [8], 40.5 µM; in experiment [9], 3.64 µM; in experiment [10], 12.2 µM.

For the molecule `COc1ccccc1N=C(N)N/N=C/c1c[nH]c2ccccc12`, the TGI in [1] was 26 µM; in experiment [2], 15.7 µM; in experiment [3] it was 24.2 µM; in experiment [4], 22 µM; in [5], 19.8 µM; in experiment [6], 30.2 µM. Besides, the TGI was 11.7 µM in [7], 3.32 µM in experiment [8], 25.4 µM in [9] and 31.2 µM in experiment [10].

As to `CCn1c(C(=O)N(C2CC2)C2CC2)cc2c3c(ncn3C)c(Nc3cc(C)n(C)n3)nc21`, the GI50 in experiment [1], in experiment [2], in [3], in [4], in [5] and in [6] was > 100 µM throughout. For the same molecule, the GI50 is > 100 µM in experiment [7], > 100 µM in experiment [8], 1260 nM in experiment [9] and > 100000 nM in [10]. Also, the TGI in experiment [1], in experiment [2], in experiment [3], in experiment [4], in [5] and in experiment [6] was > 100 µM in each case. For the same molecule, the TGI in [7] is > 100 µM; in [8], > 100 µM; in [9] it was 32.5 µM; in experiment [10], > 100 µM.
